Test results as given in publication PMC9416257, “Design, Synthesis and Preliminary Evaluation of the Cytotoxicity and Antibacterial Activity of Novel Triphenylphosphonium Derivatives of Betulin” (Molecules, 2022).
Read-outs that look alike come from different tables or passages of the source.

Experiments:
[1] = test system: NHDF (Normal Human Dermal Fibroblast cells); assay: Cytotoxicity, CCK-8 cell viability assay (safety on normal cells); assay type: cell-based; details: read-out: Activity IC50, NHDF
Procedure: (§1) The obtained new molecular hybrids of BN were screened in order to initially investigate their cytotoxicity as well as examine the relationships between the structure and biological effect. The common element of all of the tested compounds was the presence of a lipophilic moiety (CH2)nTPP^⊕ (n = 3, 4, 5). The research was conducted on two groups of compounds: 28-TPP^⊕ BN and 3,28-bisTPP^⊕ BN. Their cytotoxicity was investigated on two cancer cell lines: HCT 116 (colorectal carcinoma cell line) and MCF-7 (human breast adenocarcinoma cell line). The proliferation of tumor cells treated with the tested compounds (7 and 9) at 12.5–3.125 µM concentrations were determined after 24 h of incubation. Additionally, all compounds were tested against the NHDF cell line (Normal Human Dermal Fibroblast cells) to assess their safety. Half-maximal inhibitory concentrations (IC50) of triphenylphosphonium analogs of BN were determined using a CCK-8 assay and are summarized in Table 2.
(§2) The human colorectal carcinoma cell line (HCT 116) and the human breast adenocarcinoma cell line (MCF-7) cells were purchased from the American Type Culture Collection (ATCC, Manassas, VA, USA). The Normal Human Dermal Fibroblast (NHDF) cells were purchased from Lonza (Dermal Fibroblasts, Lonza, Poland). All cells were cultured under standard conditions at 37 °C in a humidified atmosphere at 5% CO2 in DMEM/F12 medium (PAA) supplemented with 10% of heat-inactivated fetal bovine serum (FBS, EURx, Gdansk, Poland) and antibiotics (penicillin/streptomycin).
(§3) Cells were seeded at 7500 (HCT 116) or 10,000 (MCF-7, NHDF) cells/well in 96-well plates. After 24 h, the culture medium was removed and 100 µL of fresh medium containing the test compounds at 0–12.5 µM concentrations was added to the culture wells. The test compounds were dissolved in DMSO to obtain a stock solution with a concentration of 5 mM (betulin) or 10 mM (other test compounds). The stock solution was diluted with the fresh culture medium to the desired concentration. Controls were cells grown in medium without the addition of test compounds. After 24 h of incubation with the test compounds, 10 µL of CCK-8 reagent (Bimake, Houston, TX, USA) was added to each well. After 2 h, the absorbance of the samples was measured at a wavelength of 450 nm using a microplate reader (Epoch, BioTek Instruments, Winooski, VT, USA). The determinations were conducted in at least three biological replications (each biological replication contained 3 technical replications). The cell viability rate was calculated using CalcuSyn software (version 2.0, Biosoft, Cambridge, UK).

S. aureus ATCC 25923 = assay: Antibacterial assay, optical density of culture in TSB; assay type: cell-based, Staphylococcus aureus; details: 37 °C, 18 h
Procedure: (§4) Investigations were carried out using different concentrations of solutions from 25 to 250 µM. A 25 µM concentration of the tested derivatives was not enough to inhibit the growth of […]. When the concentration of analogs 7d–7f and 9a–9c increased to 200 µM, the growth of S. aureus ATCC 25923 and S. epidermidis ATCC 12228 was inhibited. Furthermore, the optical density of all compounds remained unchanged after 18 h of bacteria culture. In the case of analogs 7a–7c, the optical density values were between 0.9 and 2.2 when they were cultured with S. aureus ATCC 25923. The bacterial growth was slower compared to the control sample (TSB-culture medium). […] In the case of analog 7c, the optical density increased up to […] after 18 h of the sample culture with both kinds of Gram-positive bacteria. In contrast, the reference sample’s (TSB) optical density increased to 7.5 for S. aureus ATCC 25923, and 4.9 for S. epidermidis ATCC 12228 after 18 h of bacteria culture. […] All of the analog values of the measured optical density were similar to that of the reference sample (5.0–5.1, Table 3).
(§5) Antibacterial analysis was performed using the S. aureus ATCC 25923, S. epidermidis ATCC 12228, and Escherichia coli ATCC 25922 bacteria strains. The test compounds were dissolved in DMSO to obtain a stock solution with a concentration of 5 mM (betulin) or 10 mM (other test compounds). The stock solution was diluted with water to the desired concentration (25–250 µM). Then, 1 mL of the investigated solutions was mixed with 1 mL of culture medium (TSB, Biomaxima, Lublin, Poland) in a sterile glass tube. The initial concentration of bacteria was around 5 × 10^6 CFU/mL. The concentration of bacteria was measured using an optical densitometer before and after 18 h of bacteria culture in glass tubes at 37 °C (incubator POL-EKO, Wodzislaw Slaski, Poland). The investigations were repeated for three independent samples. The control sample was the culture medium without any supplementation.

[2] = test system: HCT 116 (colorectal carcinoma cell line); assay: Cytotoxicity, CCK-8 cell viability assay; assay type: cell-based; details: Homo sapiens, read-out: Activity IC50, HCT 116
Procedure: as §1, §2, §3

[3] = test system: MCF-7 (human breast adenocarcinoma cell line); assay: Cytotoxicity, CCK-8 cell viability assay; assay type: cell-based; details: read-out: Activity IC50, MCF-7
Procedure: as §1, §2
as §3, with “After 24 h, the culture medium was removed and 100 µL of fresh medium containing the test compounds at 0–12.5 µM concentrations was added to the culture wells.” left out

[4] = test system: S. epidermidis ATCC 12228; assay: Antibacterial assay, optical density of culture in TSB; assay type: cell-based, Staphylococcus epidermidis; details: 37 °C, 18 h
Procedure: as §4, §5

[5] = test system: Escherichia coli ATCC 25922; assay: as above; assay type: cell-based; details: 37 °C, 18 h; also: key: 0: no difference between samples after 18 h of bacteria culture (bacteria grow was inhibited); neg: negative results (analog BN did not inhibit bacteria growing)
Procedure: as §4, §5

Row | SMILES | IC50 ([1]; 24 h) [µM] | Difference between optical density before and after culture, S. aureus ATCC 25923 (S. aureus ATCC 25923; 200 μM) | Difference between optical density before and after culture, S. aureus ATCC 25923 (S. aureus ATCC 25923; 250 μM) | IC50 ([2]; HCT-116, 24 h) [µM] | IC50 ([3]; MCF7, 24 h) [µM] | Difference between optical density before and after culture, S. epidermidis ATCC 12228 ([4]; 200 μM) | Difference between optical density before and after culture, S. epidermidis ATCC 12228 ([4]; 250 μM) | Difference between optical density before and after culture, Escherichia coli ATCC 25922 ([5]; 200 μM) | Difference between optical density before and after culture, Escherichia coli ATCC 25922 ([5]; 250 μM) | IC50 ([1]; CCK-8 assay, incubation time 24 h, mean ± SD (n = 3)) [µM] | IC50 ([2]; HCT-116, CCK-8 assay, incubation time 24 h, mean ± SD (n = 3)) [µM] | IC50 ([3]; MCF7, CCK-8 assay, incubation time 24 h, mean ± SD (n = 3)) [µM]
1 | C=C(C)[C@@H]1CC[C@]2(COC(=O)CCC(=O)OCCC[P+](c3ccccc3)(c3ccccc3)c3ccccc3)CC[C@]3(C)C(CCC4[C@@]5(C)CC[C@H](OC(=O)CCC(=O)OCCC[P+](c6ccccc6)(c6ccccc6)c6ccccc6)C(C)(C)C5CC[C@]43C)C12 (stereo partly drawn) [9a, 3,28-O,O′-Bis(3’-(3"-triphenylphosphoniopropyloxycarbonyl)propanoyl)betulin bromide] | 5.91 ± 0.33 | 0 | 0 | 6.32 ± 0.27 | 31.3 ± 3.02 | 0 | 0 | neg | neg | – | – | –
2 | C=C(C)[C@@H]1CC[C@]2(COC(=O)CCC(=O)OCCCC[P+](c3ccccc3)(c3ccccc3)c3ccccc3)CC[C@]3(C)C(CCC4[C@@]5(C)CC[C@H](OC(=O)CCC(=O)OCCCC[P+](c6ccccc6)(c6ccccc6)c6ccccc6)C(C)(C)C5CC[C@]43C)C12 (stereo partly drawn) [9b, 3,28-O,O’-Bis(3’-(4"-triphenylphosphoniobutyloxycarbonyl)propanoyl)betulin bromide] | 8.02 ± 0.35 | 0 | 0 | 7.97 ± 0.51 | 23.6 ± 0.33 | 0 | 0 | neg | neg | – | – | –
3 | C=C(C)[C@@H]1CC[C@]2(COC(=O)CCC(=O)OCCCCC[P+](c3ccccc3)(c3ccccc3)c3ccccc3)CC[C@]3(C)C(CCC4[C@@]5(C)CC[C@H](OC(=O)CCC(=O)OCCCCC[P+](c6ccccc6)(c6ccccc6)c6ccccc6)C(C)(C)C5CC[C@]43C)C12 (stereo partly drawn) [9c, 3,28-O,O′-Bis(3’-(5"-triphenylphosphoniopentyloxycarbonyl)propanoyl)betulin bromide] | 10.6 ± 0.34 | 0 | 0 | 19 ± 0.51 | 53.3 ± 5.41 | 0 | 0 | neg | neg | – | – | –
4 | C=C(C)[C@@H]1CC[C@]2(CO)CC[C@]3(C)[C@H](CC[C@@H]4[C@@]5(C)CC[C@H](O)C(C)(C)[C@@H]5CC[C@]43C)[C@@H]12 [BN, 3-lup-20(29)-ene-3,28-diol, reference compound] | – | 5.1 McFarland’s scale (CFU/mL) | 5.6 McFarland’s scale (CFU/mL) | – | – | neg | 4.7 McFarland’s scale (CFU/mL) | neg | neg | > 12.5 | > 12.5 | > 12.5
